Measurements published in ChEMBL document CHEMBL5331074, “Design and synthesis of new adamantyl derivatives as promising antiproliferative agents” (Eur J Med Chem, 2023).
Activity calls are given as the source filed them. The rule behind the calls is not given here.

Legend:
[1] = molecular target: Ectonucleotide pyrophosphatase/phosphodiesterase family member 1 (Homo sapiens, UniProt P22413); assay: Inhibition of human NPP1 expressed in COS-7 cells using pNP-TMP as substrate preincubated for 10 mins followed by substrate addition and measured after 35 mins by microplate reader analysis; format: cell-based
[2] = molecular target: Ectonucleotide pyrophosphatase/phosphodiesterase family member 3 (Homo sapiens, UniProt O14638); assay: Inhibition of human NPP3 expressed in COS-7 cells using pNP-TMP as substrate preincubated for 10 mins followed by substrate addition and measured after 35 mins by microplate reader analysis; format: cell-based
HT-29 [3] = assay: Cytotoxicity against human HT-29 assessed as cell growth inhibition; format: functional, cell-based
HT-29 [4] = assay: Cytotoxicity against human HT-29 assessed as mean growth inhibition; format: functional
HL-60(TB) = assay: Cytotoxicity against human HL-60(TB) cells assessed as cell growth inhibition; format: functional, cell-based
K562 = assay: Cytotoxicity against human K562 cells assessed as cell growth inhibition; format: functional, cell-based
RPMI-8226 = assay: Cytotoxicity against human RPMI-8226 cells assessed as cell growth inhibition; format: functional, cell-based
SR = assay: Cytotoxicity against human SR cells assessed as cell growth inhibition; format: functional, cell-based
A549 = assay: Cytotoxicity against human A549 cells assessed as cell growth inhibition; format: functional, cell-based
HOP-62 = assay: Cytotoxicity against human HOP-62 cells assessed as cell growth inhibition; format: functional, cell-based
HOP-92 = assay: Cytotoxicity against human HOP-92 cells assessed as cell growth inhibition; format: functional, cell-based
NCI-H226 = assay: Cytotoxicity against human NCI-H226 cells assessed as cell growth inhibition; format: functional, cell-based
NCI-H23 = assay: Cytotoxicity against human NCI-H23 cells assessed as cell growth inhibition; format: functional, cell-based
NCI-H322M = assay: Cytotoxicity against human NCI-H322M cells assessed as cell growth inhibition; format: functional, cell-based
NCI-H460 = assay: Cytotoxicity against human NCI-H460 cells assessed as cell growth inhibition; format: functional, cell-based
NCI-H522 = assay: Cytotoxicity against human NCI-H522 cells assessed as cell growth inhibition; format: functional, cell-based
COLO 205 = assay: Cytotoxicity against human COLO 205 cells assessed as cell growth inhibition; format: functional, cell-based
HCC 2998 = assay: Cytotoxicity against human HCC 2998 cells assessed as cell growth inhibition; format: functional, cell-based
HCT-116 = assay: Cytotoxicity against human HCT-116 cells assessed as cell growth inhibition; format: functional, cell-based
HCT-15 = assay: Cytotoxicity against human HCT-15 cells assessed as cell growth inhibition; format: functional, cell-based
HT-29 [5] = assay: Cytotoxicity against human HT-29 cells assessed as cell growth inhibition; format: functional, cell-based
KM12 = assay: Cytotoxicity against human KM12 cells assessed as cell growth inhibition; format: functional, cell-based
SW-620 = assay: Cytotoxicity against human SW620 cells assessed as cell growth inhibition; format: functional, cell-based
SF-268 = assay: Cytotoxicity against human SF-268 cells assessed as cell growth inhibition; format: functional, cell-based
SF-295 = assay: Cytotoxicity against human SF-295 cells assessed as cell growth inhibition; format: functional, cell-based
SF-539 = assay: Cytotoxicity against human SF-539 cells assessed as cell growth inhibition; format: functional, cell-based
SNB-19 = assay: Cytotoxicity against human SNB-19 cells assessed as cell growth inhibition; format: functional, cell-based
SNB-75 = assay: Cytotoxicity against human SNB-75 cells assessed as cell growth inhibition; format: functional, cell-based
U-251 = assay: Cytotoxicity against human U-251 cells assessed as cell growth inhibition; format: functional, cell-based
LOX IMVI = assay: Cytotoxicity against human LOX IMVI cells assessed as cell growth inhibition; format: functional, cell-based
Malme-3M = assay: Cytotoxicity against human Malme-3M cells assessed as cell growth inhibition; format: functional, cell-based
M14 = assay: Cytotoxicity against human M14 cells assessed as cell growth inhibition; format: functional, cell-based
MDA-MB-435 = assay: Cytotoxicity against human MDA-MB-435 cells assessed as cell growth inhibition; format: functional, cell-based
SK-MEL-2 = assay: Cytotoxicity against human SK-MEL-2 cells assessed as cell growth inhibition; format: functional, cell-based
SK-MEL-28 = assay: Cytotoxicity against human SK-MEL-28 cells assessed as cell growth inhibition; format: functional, cell-based
SK-MEL-5 = assay: Cytotoxicity against human SK-MEL-5 cells assessed as cell growth inhibition; format: functional, cell-based
UACC-257 = assay: Cytotoxicity against human UACC-257 cells assessed as cell growth inhibition; format: functional, cell-based
UACC-62 = assay: Cytotoxicity against human UACC-62 cells assessed as cell growth inhibition; format: functional, cell-based
IGROV-1 = assay: Cytotoxicity against human IGROV-1 cells assessed as cell growth inhibition; format: functional, cell-based
OVCAR-4 = assay: Cytotoxicity against human OVCAR-4 cells assessed as cell growth inhibition; format: functional, cell-based
OVCAR-5 = assay: Cytotoxicity against human OVCAR-5 cells assessed as cell growth inhibition; format: functional, cell-based
OVCAR-8 = assay: Cytotoxicity against human OVCAR-8 cells assessed as cell growth inhibition; format: functional, cell-based
NCI/ADR-RES = assay: Cytotoxicity against human NCI/ADR-RES cells assessed as cell growth inhibition; format: functional, cell-based
SK-OV-3 = assay: Cytotoxicity against human SK-OV-3 cells assessed as cell growth inhibition; format: functional, cell-based
786-0 = assay: Cytotoxicity against human 786-0 cells assessed as cell growth inhibition; format: functional, cell-based
A498 = assay: Cytotoxicity against human A498 cells assessed as cell growth inhibition; format: functional, cell-based
ACHN = assay: Cytotoxicity against human ACHN cells assessed as cell growth inhibition; format: functional, cell-based
RXF 393 = assay: Cytotoxicity against human RXF 393 cells assessed as cell growth inhibition; format: functional, cell-based
SN12C = assay: Cytotoxicity against human SN12C cells assessed as cell growth inhibition; format: functional, cell-based
TK-10 = assay: Cytotoxicity against human TK-10 cells assessed as cell growth inhibition; format: functional, cell-based
PC-3 = assay: Cytotoxicity against human PC-3 cells assessed as cell growth inhibition; format: functional, cell-based
DU-145 = assay: Cytotoxicity against human DU-145 cells assessed as cell growth inhibition; format: functional, cell-based
MCF7 = assay: Cytotoxicity against human MCF7 cells assessed as cell growth inhibition; format: functional, cell-based
MDA-MB-231 = assay: Cytotoxicity against human MDA-MB-231 cells assessed as cell growth inhibition; format: functional, cell-based
Hs-578T = assay: Cytotoxicity against human Hs-578T cells assessed as cell growth inhibition; format: functional, cell-based
BT-549 = assay: Cytotoxicity against human BT-549 cells assessed as cell growth inhibition; format: functional, cell-based
T47D = assay: Cytotoxicity against human T47D cells assessed as cell growth inhibition; format: functional, cell-based
MDA-MB-468 = assay: Cytotoxicity against human MDA-MB-468 cells assessed as cell growth inhibition; format: functional, cell-based
[6] = Cytotoxicity against human hTERT-HME1 cells assessed as cell growth inhibition; format: toxicity, cell-based
[7] = Selectivity index, ratio of IC50 for cytotoxicity against human hTERT-HME1 cells to IC50 for cytotoxicity against human BT-549 cells
Autotaxin = Autotaxin (Homo sapiens, UniProt Q13822); assay: Inhibition of human NPP2 expressed in COS-7 cells using pNP-TMP as substrate preincubated for 10 mins followed by substrate addition and measured after 35 mins by microplate reader analysis; format: cell-based
Carbonic anhydrase 9 = Carbonic anhydrase 9 (Homo sapiens, UniProt Q16790)
Description: Inhibition of Carbonic anhydrase 9 (unknown origin) using p-nitrophenyl acetate as substrate preincubated for 10 mins followed by substrate addition and measured after 30 mins by microplate reader method

Ectonucleotide pyrophosphatase/phosphodiesterase family member 1, sequence (P22413 whole entry): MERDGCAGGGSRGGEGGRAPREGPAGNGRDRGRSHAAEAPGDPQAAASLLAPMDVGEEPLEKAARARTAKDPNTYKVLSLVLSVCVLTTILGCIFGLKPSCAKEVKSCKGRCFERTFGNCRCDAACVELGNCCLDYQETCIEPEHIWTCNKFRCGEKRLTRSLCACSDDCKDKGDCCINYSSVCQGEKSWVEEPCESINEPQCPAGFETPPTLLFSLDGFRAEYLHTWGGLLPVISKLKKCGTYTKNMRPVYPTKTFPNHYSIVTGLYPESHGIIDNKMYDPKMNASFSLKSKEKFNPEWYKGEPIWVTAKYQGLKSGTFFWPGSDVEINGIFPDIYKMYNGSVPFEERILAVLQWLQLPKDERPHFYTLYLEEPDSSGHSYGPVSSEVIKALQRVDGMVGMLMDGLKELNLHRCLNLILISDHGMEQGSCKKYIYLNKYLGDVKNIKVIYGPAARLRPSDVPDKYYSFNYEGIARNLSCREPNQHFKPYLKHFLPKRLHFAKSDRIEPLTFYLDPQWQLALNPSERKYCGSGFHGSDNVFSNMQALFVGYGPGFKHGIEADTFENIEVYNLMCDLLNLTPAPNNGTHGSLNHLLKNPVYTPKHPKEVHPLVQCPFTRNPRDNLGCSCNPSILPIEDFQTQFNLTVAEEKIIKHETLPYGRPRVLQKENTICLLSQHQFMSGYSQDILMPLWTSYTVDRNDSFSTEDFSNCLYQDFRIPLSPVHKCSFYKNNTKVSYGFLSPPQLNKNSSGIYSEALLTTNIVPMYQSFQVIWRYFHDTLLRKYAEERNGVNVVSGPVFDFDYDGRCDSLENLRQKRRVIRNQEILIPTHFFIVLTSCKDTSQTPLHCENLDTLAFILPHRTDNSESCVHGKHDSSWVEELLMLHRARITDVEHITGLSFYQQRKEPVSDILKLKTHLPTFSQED
Ectonucleotide pyrophosphatase/phosphodiesterase family member 3, sequence (O14638 whole entry): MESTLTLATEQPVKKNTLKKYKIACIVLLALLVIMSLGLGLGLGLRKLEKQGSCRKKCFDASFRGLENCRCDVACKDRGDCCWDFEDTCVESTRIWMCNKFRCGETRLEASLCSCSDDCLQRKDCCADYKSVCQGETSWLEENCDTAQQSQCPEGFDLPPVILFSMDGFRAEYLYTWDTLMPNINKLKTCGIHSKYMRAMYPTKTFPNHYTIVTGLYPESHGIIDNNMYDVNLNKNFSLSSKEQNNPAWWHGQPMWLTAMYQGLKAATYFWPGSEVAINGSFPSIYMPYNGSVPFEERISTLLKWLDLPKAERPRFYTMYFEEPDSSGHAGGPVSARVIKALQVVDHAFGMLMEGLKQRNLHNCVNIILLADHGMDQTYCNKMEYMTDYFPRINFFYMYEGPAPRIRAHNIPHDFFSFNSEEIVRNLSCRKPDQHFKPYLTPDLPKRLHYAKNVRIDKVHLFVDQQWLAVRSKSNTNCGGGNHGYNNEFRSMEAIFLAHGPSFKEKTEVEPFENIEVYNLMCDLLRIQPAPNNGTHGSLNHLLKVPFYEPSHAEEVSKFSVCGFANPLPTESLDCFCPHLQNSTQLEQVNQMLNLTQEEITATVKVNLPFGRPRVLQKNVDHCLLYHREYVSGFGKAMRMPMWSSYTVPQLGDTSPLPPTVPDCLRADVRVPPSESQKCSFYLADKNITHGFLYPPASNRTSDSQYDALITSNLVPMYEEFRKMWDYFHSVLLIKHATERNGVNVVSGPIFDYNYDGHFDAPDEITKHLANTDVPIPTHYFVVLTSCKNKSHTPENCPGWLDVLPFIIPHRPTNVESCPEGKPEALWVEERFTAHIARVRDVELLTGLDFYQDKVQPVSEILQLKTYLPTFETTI

O=C(Nc1ccc(OS(=O)(=O)c2ccc(F)cc2)cc1)C12CC3CC(CC(C3)C1)C2
IC50 [1]: 1.13 µM | IC50 [2]: 0.74 µM | inhibition (HT-29 [3]): Active | inhibition (INH) (HT-29 [4]): 63.5% | IC50 (HL-60(TB)): 2.68 µM | IC50 (K562): 0.58 µM | IC50 (RPMI-8226): 2.15 µM | IC50 (SR): 3.6 µM | IC50 (A549): 2.3 µM | IC50 (HOP-62): 11.1 µM | IC50 (HOP-92): 1.06 µM | IC50 (NCI-H226): 19.2 µM | IC50 (NCI-H23): 7.71 µM | IC50 (NCI-H322M): 5.55 µM | IC50 (NCI-H460): 2.3 µM | IC50 (NCI-H522): 3.39 µM | IC50 (COLO 205): 0.58 µM | IC50 (HCC 2998): 7.95 µM | IC50 (HCT-116): 0.63 µM | IC50 (HCT-15): 0.42 µM | IC50 (HT-29 [5]): 0.2 µM | IC50 (KM12): 0.72 µM | IC50 (SW-620): 0.41 µM | IC50 (SF-268): 20.8 µM | IC50 (SF-295): 1.81 µM | IC50 (SF-539): 0.76 µM | IC50 (SNB-19): 15.7 µM | IC50 (SNB-75): 1.97 µM | IC50 (U-251): 19.4 µM | IC50 (LOX IMVI): 7.57 µM | IC50 (Malme-3M): 4.07 µM | IC50 (M14): 6.02 µM | IC50 (MDA-MB-435): 7.8 µM | IC50 (SK-MEL-2): 10.5 µM | IC50 (SK-MEL-28): 28.7 µM | IC50 (SK-MEL-5): 3.61 µM | IC50 (UACC-257): 3.4 µM | IC50 (UACC-62): 3.14 µM | IC50 (IGROV-1): 10.4 µM | IC50 (OVCAR-4): 1.61 µM | IC50 (OVCAR-5): 28.8 µM | IC50 (OVCAR-8): 12.8 µM | IC50 (NCI/ADR-RES): 0.94 µM | IC50 (SK-OV-3): 7.83 µM | IC50 (786-0): 5.08 µM | IC50 (A498): 0.28 µM | IC50 (ACHN): 15.7 µM | IC50 (RXF 393): 4.76 µM | IC50 (SN12C): 19 µM | IC50 (TK-10): 20.2 µM | IC50 (PC-3): 0.49 µM | IC50 (DU-145): 10.6 µM | IC50 (MCF7): 0.59 µM | IC50 (MDA-MB-231): 1.87 µM | IC50 (Hs-578T): 2.29 µM | IC50 (BT-549): 4.28 µM | IC50 (T47D): 0.83 µM | IC50 (MDA-MB-468): 1.01 µM | IC50 [6]: > 50 µM | Ratio IC50 [7]: 11.7 | IC50 (Autotaxin): 1.07 µM | IC50 (Carbonic anhydrase 9): 0.33 µM

O=C(Nc1ccc(OS(=O)(=O)c2ccccc2)cc1)C12CC3CC(CC(C3)C1)C2
IC50 [1]: 1.36 µM | IC50 [2]: 3 µM | inhibition (HT-29 [3]): Active | inhibition (INH) (HT-29 [4]): 85.4% | IC50 (HL-60(TB)): 8.39 µM | IC50 (K562): 0.32 µM | IC50 (RPMI-8226): 0.4 µM | IC50 (SR): 0.58 µM | IC50 (A549): 6.9 µM | IC50 (HOP-62): > 100 µM | IC50 (HOP-92): 1.87 µM | IC50 (NCI-H226): 27.7 µM | IC50 (NCI-H23): 6.68 µM | IC50 (NCI-H322M): > 100 µM | IC50 (NCI-H460): 6.1 µM | IC50 (NCI-H522): 4.36 µM | IC50 (COLO 205): 0.87 µM | IC50 (HCC 2998): 5.48 µM | IC50 (HCT-116): 2.5 µM | IC50 (HCT-15): 1 µM | IC50 (HT-29 [5]): 0.4 µM | IC50 (KM12): 2.1 µM | IC50 (SW-620): 1.97 µM | IC50 (SF-268): > 100 µM | IC50 (SF-295): 8.27 µM | IC50 (SF-539): 0.96 µM | IC50 (SNB-19): > 100 µM | IC50 (SNB-75): 7.16 µM | IC50 (U-251): 4.81 µM | IC50 (LOX IMVI): 4.38 µM | IC50 (Malme-3M): > 100 µM | IC50 (M14): 7.2 µM | IC50 (MDA-MB-435): > 100 µM | IC50 (SK-MEL-2): > 100 µM | IC50 (SK-MEL-28): > 100 µM | IC50 (SK-MEL-5): 3.12 µM | IC50 (UACC-257): 13.5 µM | IC50 (UACC-62): 6.47 µM | IC50 (IGROV-1): > 100 µM | IC50 (OVCAR-4): 8.38 µM | IC50 (OVCAR-5): > 100 µM | IC50 (OVCAR-8): > 100 µM | IC50 (NCI/ADR-RES): 5.75 µM | IC50 (SK-OV-3): > 100 µM | IC50 (786-0): 3.8 µM | IC50 (A498): 2.04 µM | IC50 (ACHN): > 100 µM | IC50 (RXF 393): 5.12 µM | IC50 (SN12C): > 100 µM | IC50 (TK-10): > 100 µM | IC50 (PC-3): 2.9 µM | IC50 (DU-145): > 100 µM | IC50 (MCF7): 3.26 µM | IC50 (MDA-MB-231): 3.79 µM | IC50 (Hs-578T): 7.29 µM | IC50 (BT-549): 3.24 µM | IC50 (T47D): 3.57 µM | IC50 (MDA-MB-468): 3.8 µM | IC50 [6]: > 50 µM | Ratio IC50 [7]: 15.4 | IC50 (Autotaxin): 1.35 µM | IC50 (Carbonic anhydrase 9): 1.02 µM
